Here are results for 14 compounds from patent publication US5747517A, “Benzylidene rhodanines” (Eli Lilly and Company, priority 1996, dated 1998).

Test [1] relates to β-amyloid peptide production in 293 751 SWE and CHO 751 SWE cells. Put plainly: β-Amyloid Peptide Production Inhibition Activity In Cells (cellular assay, ELISA normalised to MTT). The following applies: for inhibition at 0.31 µg/mL: 0.31 μg/ml; for inhibition at 0.31 µg/mL / inhibition at 0.62 µg/mL / inhibition at 1.25 µg/mL / inhibition at 2.5 µg/mL / inhibition at 5 µg/mL / inhibition at 10 µg/mL: read-out: Percent Inhibition (β-amyloid peptide production); for inhibition at 0.62 µg/mL: 0.62 μg/ml. Format: cell-based. As for the experimental part:
β-AMYLOID PEPTIDE […] (CELLULAR ASSAY)
Two cell lines (human kidney cell line 293 and Chinese hamster ovary cell line CHO) were stably transfected with the gene for APP751 containing the double mutation Lys651 -Met652 to Asn651 -Leu652 (APP-751 numbering) commonly called the Swedish mutation using the method described in Citron, et al., Nature 360:672-674 (1992). The transfected cell lines were designated as 293 751 SWE and CHO 751 SWE, and were plated in Corning 96 well plates at 2.5×10^4 or 1×10^4 cells per well respectively in Dulbecco's minimal essential media (DMEM) plus 10% fetal bovine serum. Following overnight incubation at 37° C. in an incubator equilibrated with 10% carbon dioxide (CO2), the media were removed and replaced with 200 μl per well of media containing an aspartyl protease inhibitor. After a two hour pretreatment period, the media were again removed and replaced with fresh media containing the aspartyl protease inhibitor and the cells were incubated for an additional two hours.
After treatment, plates were centrifuged at 1200 rpm for five minutes at room temperature to pellet cellular debris from the conditioned media. From each well, 100 μl of conditioned media were transferred into an ELISA plate precoated with antibody 266 against β-amyloid peptide(13-28) (Seubert et al., supra. ) and stored at 4° C. overnight. An ELISA assay employing labelled antibody 6C6 (against β-amyloid peptide-1-16) was run the next day to measure the amount of β-amyloid peptide produced.
Cytotoxic effects of the compounds were measured by a modification of the method of Hansen et al., (1989) J. Immun. Meth. 119:203-210. To the cells remaining in the tissue culture plate, was added 25 μl of a 3-(4,5-dimethylthiazol-2-yl)2,5-diphenyltetrazolium bromide (MTT) stock solution (5 mg/ml) to a final concentration of […]. Cells were incubated at 37° C. for one hour, and cellular activity was stopped by the addition of an equal volume of MTT lysis buffer (20% w/v sodium dodecylsulfate in 50% DMF, pH 4.7). Complete extraction was achieved by overnight shaking at room temperature. The difference in the OD562nm and the OD650nm was measured in a Uvmax microplate reader as an indicator of the cellular viability.
The results of the β-amyloid peptide ELISA were fit to a standard curve and expressed as ng/ml β-amyloid peptide. In order to normalize for cytotoxicity, these β-amyloid peptide results were divided by the MTT results and expressed as a percentage of the results from a drug-free control.

The target in another test is T1, cathepsin D (Homo sapiens, UniProt P07339).
T1 construct: Human brain cathepsin D was purified from frozen post-mortem cortex; from tissue; host or cells: human tissue: brain cortex (Assay 1), liver (Assay 2, bought from Athens Research and Technology) or placenta (Assay 3); the results are not tied to one of them
T1 sequence (P07339 169-412 limits assumed): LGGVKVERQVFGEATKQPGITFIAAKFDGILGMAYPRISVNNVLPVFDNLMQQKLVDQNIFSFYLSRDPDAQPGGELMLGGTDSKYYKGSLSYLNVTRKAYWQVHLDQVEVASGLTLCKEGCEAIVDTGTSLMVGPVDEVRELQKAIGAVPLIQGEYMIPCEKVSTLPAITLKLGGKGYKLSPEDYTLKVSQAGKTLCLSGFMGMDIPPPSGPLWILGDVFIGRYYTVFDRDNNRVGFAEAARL
T1 sequence (P07339 65-162 limits assumed): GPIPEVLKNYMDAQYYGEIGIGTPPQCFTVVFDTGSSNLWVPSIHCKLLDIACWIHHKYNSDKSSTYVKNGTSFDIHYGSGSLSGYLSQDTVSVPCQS
In words: Cathepsin D Inhibition Assay (non-cellular). Format: biochemical. The following applies: for inhibition at 0.31 µg/mL: 0.31 μg/ml; for inhibition at 0.31 µg/mL / inhibition at 0.62 µg/mL / inhibition at 1.25 µg/mL / inhibition at 2.5 µg/mL / inhibition at 5 µg/mL / inhibition at 10 µg/mL: read-out: Percent Inhibition (cathepsin D); for inhibition at 0.62 µg/mL: 0.62 μg/ml. The text has this:
First, test compounds which inhibit exemplary aspartyl proteases, particularly cathepsin D, are identified as aspartyl protease inhibitors. As used herein, the term "test system" refers to an assay that is designed to measure aspartyl protease inhibitory activity. A typical test system used for such identification is a non-cellular assay where turnover of the protease substrate is monitored upon the administering of a protease inhibitor. The turnover of the protease […] is then compared to the turnover of substrate in a control test system in which no such aspartyl protease inhibitor has been administered. As used herein, the term "control test system" refers to an identical test system that is run side-by-side with the test system with the exception no aspartyl protease inhibitor is administered. This non-cellular assay is used to identify those test compounds having suitable aspartyl protease inhibitory activity in a non-cellular environment. An example of a non-cellular assay that may be used to determine in vitro aspartyl protease inhibitory activity reacts partially purified human brain cathepsin D with a substrate, e.g., porcine renin tetradecapeptide. The resultant reaction mixture is divided into portions and each portion is incubated for a different period of time. After the reaction is stopped, the turnover of substrate in each portion is determined using reverse-phase high performance liquid chromatography (HPLC). Protease inhibition activity may be calculated based on the rates of substrate turnover. This assay is exemplified in Assay 1, below. A second non-cellular assay for determining in vitro aspartyl protease inhibitory activity utilizes a microtiter plate, where a suitable aspartyl protease, such as a cathepsin D is added to each well together with controls. A suitable fluorometric substrate is added to each well. The resultant reaction mixture is allowed to react for a preselected time, e.g., 30 minutes. After enzyme activity is terminated, the substrate or its product may be determined fluorometrically and then the protease inhibition activity may be calculated based on the rates of substrate turnover. This assay is exemplified in Assay 2, below. CATHEPSIN D INHIBITION ACTIVITY (NON-CELLULAR ASSAY) Human brain cathepsin D was purified from frozen post-mortem cortex substantially in accordance with the method of Nixon and Morotta, (1984) J. Neurochem. 43:507-516. The cortex material was prepared and applied to a DEAE-Sepharose® column. The flow through fraction was dialyzed against 50 mM Tris-HCl, pH 7.5, and applied to concanavalin A Sepharose® and eluted with 50 mM Tris, pH 7.5, 0.5M methyl α-D-mannopyranoside. The eluted cathepsin D activity was dialyzed against 25 mM Tris, pH 7.5, and stored at -40° C. (Con A pool) until use. […] The substrate, a porcine renin tetradecapeptide,was added to each reaction mixture to yield a final concentration of 44 μM in a total volume of 300 μl. The samples were incubated at 37° C. for 0, 10, 20, or 30 minutes, and then boiled for 5 minutes to stop the reaction. The samples were centrifuged in a microcentrifuge for 10 minutes at 14,000 rpm at 4° C. After centrifugation, 200 μL of each reaction was injected onto a C18 reverse phase liquid chromatography column (Vydac, Hesperia, Calif.) with a Perkin Elmer ISS 100 autosampler and eluted with a gradient of 0-50% CH3 CN in 0.1% CF3 CO2 H at 2 ml/min. Peptide product peaks were monitored at 220 nm with a Perkin Elmer LC 95 detector and integrated with Rainin Dynamax software in order to quantitate activity. CATHEPSIN D INHIBITION ACTIVITY (NON-CELLULAR FLUOROMETIC ASSAY) A fluorometric assay was adapted from the method disclosed by Murakami et al., (1981) Anal. Biochem. 110:232-239 for measuring renin activity. […] Compound stocks were prepared by dissolving an aspartyl protease inhibitor in DMSO for each concentration tested in the assay and then 5 μL of compound stock was added to each of the wells prepared above. […]

Values joined by “and” are separate entries in the source; they are usually repeats but may differ in a detail not shown here. Equal values may be shown once. Where a name gives a salt, the structure may show the parent alone. Read-outs that look alike come from different tables or passages of the source.

For “5-[[3-[4-(t-butyl)phenoxy]phenyl]methylene]-3-(N,N-dimethylamino)-2-thioxo-4-thiazolidinone [Example 13]”, the “Percent Inhibition (β-amyloid peptide production)” value in test [1] (10.0 μg/ml) is 25%.

Regarding “5-[[4-(4-acetyl-3-hydroxy-2-propylphenyl)methoxy]phenyl]methylene]-2-thioxo-4-thiazolidinone sodium salt [Example 14]”, the “Percent Inhibition (β-amyloid peptide production)” value in test [1] (10.0 μg/ml) is 0%.

As to “5-[[4-[(4-acetyl-3-hydroxy-2-propylphenyl)methoxy]phenyl]methylene]-2-thioxo-4-thiazolidinone disodium salt [Example 10]”, the “Percent Inhibition (β-amyloid peptide production)” value in test [1] (10.0 μg/ml) is recorded as 41%.

`CCCc1c(COc2ccc(C=C3SC(=S)NC3=O)cc2)ccc(C(C)=O)c1O` [Example 1, 5-[[4-[(4-acetyl-3-hydroxy-2-propylphenyl)methoxy]phenyl]methylene]-2-thioxo-4-thiazolidinone]: the inhibition at 0.31 µg/mL (on cathepsin D; in test [1]) was 4% in each case. Besides, the inhibition at 0.62 µg/mL (at cathepsin D; in test [1]) was 0% each time. The inhibition at 1.25 µg/mL (at cathepsin D (1.25 μg/ml); in test [1] (1.25 μg/ml)) was 15% throughout. For the same compound, the inhibition at 2.5 µg/mL (on cathepsin D (2.50 μg/ml); in test [1] (2.50 μg/ml)) was 15% throughout. Moreover, the inhibition at 5 µg/mL (on cathepsin D (5.00 μg/ml); in test [1] (5.00 μg/ml)) was 26% throughout. On cathepsin D (10.0 μg/ml), the “Percent Inhibition (cathepsin D)” value came out at 45%. Besides, the inhibition at 10 µg/mL (at cathepsin D (10.0 μg/ml); in test [1] (10.0 μg/ml)) was 60% in each case. The “Percent Inhibition (β-amyloid peptide production)” value in test [1] (10.0 μg/ml) amounted to 45%.

For the compound `O=C1NC(=S)SC1=Cc1ccc(OCCCc2ccccc2)cc1` [Example 2, 5-[[4-(3-phenylpropoxy)phenyl]methylene]-2-thioxo-4-thiazolidinone], the inhibition (usually the drop in the measured response relative to a control, in per cent) at 10 µg/mL at cathepsin D (10.0 μg/ml) worked out at 38%.

Regarding `O=C1NC(=S)SC1=Cc1ccc(OCc2ccccc2)cc1` [Example 3, 5-[[4-(benzyloxy)phenyl]methylene]-2-thioxo-4-thiazolidinone], the inhibition at 10 µg/mL on cathepsin D (10.0 μg/ml) came to 14%. In test [1], the inhibition at 0.31 µg/mL came to 14% and the inhibition at 0.62 µg/mL amounted to 19%. In test [1] (1.25 μg/ml), the “Percent Inhibition (β-amyloid peptide production)” value is reported as 21% and the inhibition at 1.25 µg/mL came out at 15%. For the same compound, in test [1] (2.50 μg/ml), the “Percent Inhibition (β-amyloid peptide production)” value turned out to be 33% and the inhibition at 2.5 µg/mL came out at 24%. Besides, in test [1] (5.00 μg/ml), the “Percent Inhibition (β-amyloid peptide production)” value came to 51% and the inhibition at 5 µg/mL stood at 41%. Moreover, in test [1] (10.0 μg/ml), the “Percent Inhibition (β-amyloid peptide production)” value worked out at 74% and the inhibition at 10 µg/mL turned out to be 67%.

Take `CCCc1c(OCc2ccc(/C=C3\SC(=S)NC3=O)cc2)ccc(C(C)=O)c1O` [Example 4, (Z)-5-[[4-[(4-acetyl-3-hydroxy-2-propylphenoxymethyl)]phenyl]methylene]-2-thioxo-4-thiazolidinone]: the inhibition at 10 µg/mL in test [1] (10.0 μg/ml) came to 38%.

With `CCCc1c(COc2ccc(C=C3SC(=S)N(C)C3=O)cc2)ccc(C(C)=O)c1O` [Example 6, 5-[[4-[(4-acetyl-3-hydroxy-2-propylphenyl)methoxy]phenyl]methylene]-3-methyl-2-thioxo-4-thiazolidinone], the inhibition at 10 µg/mL on cathepsin D (10.0 μg/ml) came out at 46%.

On to `CC(C)(C)c1ccc(Oc2cccc(C=C3SC(=S)N(N)C3=O)c2)cc1` [Example 9, 5-[[3-[4-(t-butyl)phenoxy]phenyl]methylene]-3-amino-2-thioxo-4-thiazolidinone], for which the inhibition at 10 µg/mL on cathepsin D (10.0 μg/ml) was 14%.

Turning to `CCCc1c(COc2ccc(C=C3SC(=S)NC3=O)cc2)ccc(C(C)=O)c1O` [Example 11, 5-[[4-[(4-acetyl-3-hydroxy-2-propylphenyl)methoxy]phenyl]methylene]-2-thioxo-4-thiazolidinone dilithium salt], in test [1], the inhibition at 10 µg/mL stood at 20%.

For the compound `CCCCc1ccc(Oc2ccc(C=C3SC(=S)NC3=O)cc2)cc1` [Example 15, 5-[[4-(4-butylphenoxy)phenyl]methylene]-2-thioxo-4-thiazolidinone], the inhibition at 10 µg/mL in test [1] (10.0 μg/ml) was determined as 14%.

As for `CC(=O)c1ccc(COc2ccc(C=C3SC(=S)NC3=O)cc2)cc1` [Example 16, 5-[[4-[(4-acetylphenyl)methoxy]phenyl]-methylene]-2-thioxo-4-thiazolidinone], the inhibition at 10 µg/mL on cathepsin D (10.0 μg/ml) is 20%.

Consider `CC(C)(C)c1ccc(Oc2cccc(C=C3SC(=S)NC3=O)c2)cc1` [Example 19, 5-[[3-[4-(1,1,dimethyleth-1-yl)phenoxy]phenyl]methylene]-2-thioxo-4-thiazolidinone], for which, on cathepsin D, the inhibition at 0.31 µg/mL was determined as 14% and the inhibition at 0.62 µg/mL was 19%. In addition, at cathepsin D (1.25 μg/ml), the “Percent Inhibition (cathepsin D)” value was 21% and the inhibition at 1.25 µg/mL is 15%. Moreover, at cathepsin D (2.50 μg/ml), the “Percent Inhibition (cathepsin D)” value is on record as 33% and the inhibition at 2.5 µg/mL is 24%. At cathepsin D (5.00 μg/ml), the “Percent Inhibition (cathepsin D)” value came to 51% and the inhibition at 5 µg/mL came out at 41%. On cathepsin D (10.0 μg/ml), the “Percent Inhibition (cathepsin D)” value was 69% and 74%; the inhibition at 10 µg/mL came to 67%.

`CCCc1c(COc2ccc(C=C3SC(=S)NC3=O)cc2)ccc(C(C)=O)c1OC(C)=O` [Example 21, 5-[[4-[(4-acetyl-3-acetoxy-2-propylphenyl)methoxy]phenyl]methylene]-2-thioxo-4-thiazolidinone]: the inhibition at 10 µg/mL on cathepsin D (10.0 μg/ml) was found to be 25%.
